Laboratory results as given in patent US20140342931A1, “METHOD FOR PREDICTING RESPONSE TO ENDOCRINE THERAPY” (PAMGENE B.V., priority 2011, published 2014).

System: Estrogen Receptor alpha (ERα)
Source text: Under tamoxifen, a known antagonist of the ERα, this phosphorylation affects the conformation of ERα and changes its orientation to the protein SRC-1. In this example we studied the effect of ERαSer305 phosphorylation on the binding of cofactors in transfected cells and in breast tumor specimens. We used the methods and coregulator peptide array as described in WO 2008/028978 containing 154 coregulator peptides (table 1).
ERαY/C-transfected U2OS cells were stimulated with cAMP to induce PKA-mediated ERα phosphorylation. The serine-to-alanine mutant ERαSer305Ala-Y/C was used as a negative control (FIG. 1).
The effect of PKA activation on peptide binding was also studied under tamoxifen conditions.

modulation of ERα binding to coregulators (concentration range of estradiol up to 10^−8 M, control peptide IDNR13 (NCOA1_677_700), wild type and Ser305Ala ERα, cAMP stimulated and control cells) | Compound | ERα binding to the control peptide (IDNR13) at saturating tamoxifen concentrations (concentration range up to 10^-5 M, ERα-wt and ERαSer305Ala, with or without cAMP (PKA activation))
 | 4-hydroxy-Tamoxifen [4OH-tamoxifen] | largely blocked
dose dependent modulation | C[C@]12CC[C@@H]3c4ccc(O)cc4CC[C@H]3[C@@H]1CC[C@@H]2O [estradiol, 17-β-Estradiol] | 
